Results taken from patent US11208407B2, “Substituted phenyl compounds as indoleamine 2,3-dioxygenase (IDO) inhibitors” (Merck Sharp & Dohme Corp., priority 2017, dated 2021).
pIC50: −log10 of the molar value.

What was measured:
IDO1 [1] = biological target: T1, IDO1 (Homo sapiens, UniProt P14902); assay: IDO1 Cellular Assay in HeLa Cells Stimulated with IFNγ; type: cell-based; settings: IFNγ 100 ng/mL, 300 uM L-tryptophan, about 48 hours, read-out: IDO HeLa Cell Assay, IC50
Procedure: Biological Assays IDO1 Cellular Assay in HeLa Cells Stimulated with IFNγ
HeLa cells were cultured in complete HeLa culture medium (90% EMEM, 10% heat-inactivated fetal bovine serum) and expanded to about 1×10^9 cells. The cells were then collected and frozen down at 1×10^7 cells/vial in 1 mL frozen medium (90% complete HeLa culture medium, 10% DMSO).
Compounds to be tested were serially diluted in ten 3-fold steps in DMSO starting from 10 mM DMSO stocks in Echo low volume plate(s). Compound dilutions or DMSO alone were then dispensed from the dilution plate(s) into Greiner black 384-well assay plate(s) (catalog #781086, 50 nL/well) using an Echo 550 acoustic liquid handler (Labcyte).
Frozen HeLa cells were thawed and transferred into HeLa assay medium (99% complete HeLa culture medium, 1% Pen/Strep) with 20 mL medium/vial of cells. The cells were spun down at 250 g in a table top centrifuge for 5 min and suspended in same volume of HeLa assay medium. The cells were then counted and adjusted to a density of 2×10^5 cells/mL in HeLa assay medium. Sterile L-tryptophan were added to the cells with final concentration of 300 uM L-tryptophan. A small aliquot (2 mL/plate) of HeLa cells were set aside and were not treated with IFNγ, to serve as the Max-E control.
HeLa cells with and without IFNγ were dispensed to the respective wells of 384-well assay plates containing the compounds. The plates were incubated for about 48 hours at a 37° C., 5% CO2 incubator. Afterwards, 12 μL of 0.5 M methyl isonipecotate in dimethyl sulfoxide were added into each well and the plates were sealed and incubated at 37° C. without CO2 overnight. The plates were centrifuged for 1 min at 200×g. The resulting fluorescence was measured in a Spectramax plate reader (Molecular Devices) with a 400 nm excitation filter and a 510 nm emission filter.
The fluorescence intensity of each well was corrected for the background observed in wells with non-IFNγ-treated cells and was expressed as a fraction of the intensity observed in wells of IFNγ-treated cells and DMSO only. Potencies were calculated by linear least squares fit to the four parameter logistic IC50 equation.

IDO1 [2] = biological target: T1, IDO1; assay: IDO1 Human Whole Blood Assay; type: cell-based; design: Human whole blood was drawn in sodium heparin coated tubes from healthy internal donors; from tissue; host or cells: Human whole blood from healthy donors, stimulated with LPS and IFNγ; settings: LPS and IFNγ 100 ng/mL, 18 h, kynurenine by LC/MS/MS
Procedure: IDO1 Human Whole Blood Assay
Compounds to be tested were serially diluted in ten 3-fold steps in DMSO starting from 10 mM. 3 µL of compound dilutions or DMSO alone were then dispensed from the dilution plate into a polypropylene 96-well assay plate containing 97 µL of RPMI medium using an Echo 555 acoustic liquid handler (Labcyte). LPS (lipopolysaccharide) and IFNγ was prepared in RPMI to a 10× of final conc. (1000 ng/mL), final concentration is 100 ng/mL.
Human whole blood was drawn in sodium heparin coated tubes from healthy internal donors. 240 µL of blood was transferred to each of the wells of a v-bottom 96 well plate. 30 µL of compound was transferred from intermediate dilution plate, and incubated for 15 min. 30 μL from stimulants was then transferred to blood and mixed thoroughly. Plate was covered with breathable membrane and incubated at 37° C. for overnight (18 h).
On day 2, isotope labeled standard solutions of kunurenine and tryptophan was made in water at 10× concentration and 30 µL was added to the blood at 3 µM final concentration. The assay plates were centrifuged at 300×G for 10 min with no brake to separate plasma from red blood cells. 60 µL of plasma samples was removed without disturbing red blood cells. Plasma was diluted with RPMI medium in 1:1 ratio and proteins were precipitated out with two volumes of Acetonitrile. The plates were centrifuged at 4000×G for 60 min. 20 µL of supernatant was carefully transferred to a 384 well plate containing 40 µL of 0.1% formic acid in water and analyzed by LC/MS/MS.
LC/MS/MS analyses were performed using Thermo Fisher's LX4-TSQ Quantum Ultra system. This system consists of four Agilent binary high-performance liquid chromatography (HPLC) pumps and a TSQ Quantum Ultra triple quadrupole MS/MS instrument. For each sample, 5 µL were injected onto an Atlantis T3 column (2.1 mm×150 mm, 3 µm particle size) from Waters. The mobile phase gradient pumped at 0.8 mL/min was used to elute the analytes from the column at 25° C. The elution started at 0% B increasing linearly to 25% B at 6.5 min, holding at 25% for 1 min, re-equilibrating to 10 min. Mobile phase A consisted of 0.1% formic acid in water. Mobile phase B consisted of 0.1% of formic acid in acetonitrile. Data was acquired in positive mode using a HESI interface. The operational parameters for the TSQ Quantum Ultra instrument were a spray voltage of 4000 V, capillary temperature of 380° C., vaporizer temperature 400° C., shealth gas 60 arbitrary units, Aux gas 20 arbitrary units, tube lens 85 and collision gas 1.2 mTorr. SRM (selected-reaction monitoring) chromatograms of kynurenine (Q1: 209.2>Q3:94.0) and internal standard (Q1: 215.3>Q3:98.2) were collected for 90 sec. The peak area was integrated by Xcalibur Quan software. The ratios between the kynurenine generated in the reaction and 2D6-Kynurenine spiked-in internal standard were used to generate percentage inhibition and IC50 values. Compounds were titrated and IC50's were calculated by 4 parameter sigmoidal curve fitting formula.

T1 sequence (P14902 whole entry): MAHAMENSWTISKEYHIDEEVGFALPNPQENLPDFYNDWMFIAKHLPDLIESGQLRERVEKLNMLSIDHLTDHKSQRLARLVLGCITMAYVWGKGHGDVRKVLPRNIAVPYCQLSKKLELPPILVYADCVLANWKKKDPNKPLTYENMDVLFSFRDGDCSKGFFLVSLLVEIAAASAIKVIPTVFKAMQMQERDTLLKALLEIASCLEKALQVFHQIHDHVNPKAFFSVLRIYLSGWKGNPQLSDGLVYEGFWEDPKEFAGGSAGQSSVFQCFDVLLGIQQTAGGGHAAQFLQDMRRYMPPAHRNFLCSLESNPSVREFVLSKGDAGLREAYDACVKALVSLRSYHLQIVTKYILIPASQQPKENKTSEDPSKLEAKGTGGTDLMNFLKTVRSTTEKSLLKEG

Structure (SMILES)	pIC50 (IDO1 [1])	pIC50 (IDO1 [2])
O=C(Nc1ccc(C2(c3nc4ncc(Cl)cc4[nH]3)CC(F)(F)C2)cc1)c1cccc(Cl)c1 [Example 24, 3-Chloro-N-(4-(1-(6-chloro-1H-imidazo[4,5-b]pyridin-2-yl)-3,3-difluorocyclobutyl)phenyl)benzamide]	8.73	6.92
N#Cc1cccc(C(=O)Nc2ccc(C3(c4nc5ncc(Cl)cc5[nH]4)CCC3)cc2)c1 [Example 10, N-{4-[1-(6-chloro-1H-imidazo[4,5-b]pyridin-2-yl)cyclobutyl]phenyl}-3-cyanobenzamide]	8.49	6.88
N#Cc1cccc(C(=O)Nc2ccc(C3(c4nc5ccc(C(F)(F)F)cc5[nH]4)CCC3)cc2)c1 [Example 7, 3-cyano-N-(4-{1-[6-(trifluoromethyl)-1H-benzimidazol-2-yl]cyclobutyl}phenyl)benz-amide]	8.96	7.39

More lines, now with the values ahead:

pIC50 (IDO1 [1])	pIC50 (IDO1 [2])	Structure (SMILES)
8.77	7.14	CC(C)(O)c1cc(C(F)(F)F)ncc1-c1ccc(C2(c3nc4cc(Cl)ccc4[nH]3)CCC2)cc1 [Example 49, 2-[5-{4-[1-(5-chloro-1H-benzimidazol-2-yl)cyclobutyl]phenyl}-2-(trifluoromethyl)pyridin-4-yl]propan-2-ol]
8.65	5.78	Cc1cc(OC(F)F)ncc1-c1ccc(C2(c3nc4cc(C(F)(F)F)cnc4[nH]3)COC2)cc1 [Example 44, 2-(3-{4-[6-(difluoromethoxy)-4-methylpyridin-3-yl]phenyl}oxetan-3-yl)-6-(trifluoromethyl)-3H-imidazo[4,5-b]pyridine]
